This is an account of results in ChEMBL document CHEMBL1136704, “3-amino-4-sulfonylpyridinone acetamide and related pyridothiadiazine thrombin inhibitors” (Bioorg Med Chem Lett, 2003).

A word on the Ki: it is a dissociation constant, usually derived from enzyme kinetics or from competition with a known ligand. As usually defined, the Cmax is the maximum level reached in the sampled fluid or tissue. A word on the AUC: it is the area under the concentration-time curve, a measure of exposure. As a reminder, the half-life is the time needed for the level to fall by half in the phase considered. Low values mean rapid decline, high ones slow decline.

The species named for one data set is Homo sapiens. Put plainly: Anticoagulant potency, activated partial thromboplastin time assay. The class given is functional.
In another data set the target is Prothrombin (Homo sapiens, UniProt P00734). In words: Inhibition of human thrombin.
In the next data set the target is Serine protease 1 (Homo sapiens, UniProt P07477). In words: Inhibitory activity against human trypsin.
Chain of Serine protease 1 (P07477 whole entry): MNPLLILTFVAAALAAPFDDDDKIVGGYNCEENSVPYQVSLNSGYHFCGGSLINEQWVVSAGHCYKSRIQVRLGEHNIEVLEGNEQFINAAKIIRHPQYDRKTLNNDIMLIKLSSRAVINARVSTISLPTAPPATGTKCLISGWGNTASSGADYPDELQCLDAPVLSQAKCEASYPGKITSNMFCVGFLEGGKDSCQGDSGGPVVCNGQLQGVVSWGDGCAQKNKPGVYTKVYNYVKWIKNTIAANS
A short description of data set [1]: Protein binding activity of compound in human plasma; % Free. The class given is ADME, cell-free.
For a further data set, the species on record is Rattus norvegicus. In words: Final plasma concentration in the rat ferric chloride thrombosis model. Conditions: in vivo.
Data set [2] can be described thus: Cmax value in dog. The class given is ADME, organism-based, Canis lupus familiaris. The note with it: in vivo.
Data set [3] can be described thus: Pharmacokinetic property (Area under curve). The class given is ADME.
Data set [4] in a line: Half life period was determined. Conditions: dog.
Data set [5] is described as follows: Cmax value in dogs after oral administration at 1 mg/kg. The class given is ADME, organism-based, Canis lupus familiaris. The note with it: dog, in vivo. Also on record: dose 1 mg/kg, route oral.
Data set [6] in a line: Pharmacokinetic property in dogs after oral administration at 1 mg/kg. Conditions: dog, in vivo. The class given is ADME, organism-based, Canis lupus familiaris. Details: dose 1 mg/kg, route oral.
Data set [7] in a line: Half life period in dogs after oral administration at 1 mg/kg. The class given is ADME, organism-based, Canis lupus familiaris. Details: dose 1 mg/kg, route oral. Conditions: dog, in vivo.

`Cc1nc(N)ccc1CNC(=O)Cn1c(C)cc(S(=O)(=O)C2CC2)c(N)c1=O`: the Concentration in the data set filed under Homo sapiens is 1.64 µM. Moreover, the Ki at Prothrombin came out at 17 nM; on Serine protease 1, 2800 nM.

Regarding `Cc1nc(N)ccc1CNC(=O)Cn1c(C)cc(S(=O)(=O)c2ccccc2)c(N)c1=O`, in data set [1], the Free was determined as 19%. This molecule also came in with a Concentration in the data set filed under Homo sapiens of 0.66 µM. Also, the inhibitory constant (Ki) at Prothrombin is 3.8 nM; on Serine protease 1 it was 500 nM. Further, in the data set listed under Rattus norvegicus, the concentration came out at 570 nM.

For `Cc1nc(N)ccc1CNC(=O)Cn1c(C)cc(S(=O)(=O)C2CCCCC2)c(N)c1=O`, the Free in data set [1] was found to be 38%. In the data set filed under Homo sapiens, this molecule had a Concentration of 0.75 µM. Besides, the inhibition constant (Ki) at Prothrombin amounted to 3 nM; at Serine protease 1, 260 nM. Also, in the data set listed under Rattus norvegicus, the concentration was 650 nM.

`Cc1nc(N)ccc1CNC(=O)Cn1c(C)cc(S(=O)(=O)CC2CCC2)c(N)c1=O` came in with a Free in data set [1] of 45%. For the same molecule, in [2], the Cmax was determined as 570 nM. The molecule also returned an exposure (AUC) in data set [3] of 2.58 µM·h. This molecule came in with a Concentration in the data set filed under Homo sapiens of 0.23 µM. Further, the inhibition constant Ki at Prothrombin turned out to be 0.2 nM; at Serine protease 1, 550 nM. The molecule also yielded a half-life in data set [4] of 0.783 h. Besides, the concentration in the data set filed under Rattus norvegicus amounted to 680 nM.

In the case of `Cc1nc(N)ccc1CNC(=O)Cn1c(C)cc2c(c1=O)NCN(CC1CCC1)S2(=O)=O`, the Concentration in the data set listed under Homo sapiens came out at 0.92 µM. The same molecule returned a Ki at Serine protease 1 of 1600 nM.

`Cc1nc(N)ccc1CNC(=O)Cn1c(C)cc(S(=O)(=O)NC2CC2)c(N)c1=O` yielded a Concentration in the data set listed under Homo sapiens of 0.85 µM. Further, the Ki at Serine protease 1 came to 2900 nM.

Consider `Cc1nc(N)ccc1CNC(=O)Cn1c(C)cc(S(=O)(=O)NCC2CC2)c(N)c1=O`, for which the Free in [1] amounted to 53%. Further, the Concentration in the data set listed under Homo sapiens was 0.75 µM. Moreover, the affinity on Serine protease 1 corresponds to a Ki of 1000 nM.

Regarding `Cc1nc(N)ccc1CNC(=O)Cn1c(C)cc2c(c1=O)NCN(CC1CC1)S2(=O)=O`, the Free in [1] is recorded as 25%. Also, the Cmax in [2] was found to be 590 nM. Moreover, the AUC in data set [3] is 2.14 µM·h. Besides, in the data set filed under Homo sapiens, the Concentration amounted to 0.79 µM. In addition, the figures for the Ki on Prothrombin and at Serine protease 1 were 2.1 nM and 6100 nM, respectively. Besides, the half-life in data set [4] was found to be 2.27 h.

Molecule `Cc1nc(N)ccc1CNC(=O)Cn1c(C)cc(S(=O)(=O)CC2CC2)c(N)c1=O` gave a Free in data set [1] of 70%. The Cmax in data set [2] is 370 nM. Besides, the exposure (AUC) in data set [3] came out at 0.8 µM·h. For the same molecule, in the data set listed under Homo sapiens, the Concentration amounted to 0.4 µM. For the same molecule, the inhibitory constant (Ki) at Prothrombin is 1.8 nM; at Serine protease 1 it was 1900 nM. Also, in [4], the half-life came to 1.1 h. Further, the concentration in the data set filed under Rattus norvegicus was 550 nM.

`Cc1nc(N)ccc1CNC(=O)Cn1c(C)cc(S(=O)(=O)CC2CCCC2)c(N)c1=O` had a Free in data set [1] of 29%. Besides, the Concentration in the data set listed under Homo sapiens was 0.4 µM. For the same molecule, the inhibition constant (Ki) at Prothrombin is 1.2 nM; on Serine protease 1, 630 nM. The molecule also yielded a concentration in the data set filed under Rattus norvegicus of 530 nM.

Regarding `Cc1nc(N)ccc1CNC(=O)Cn1c(C)cc(S(=O)(=O)Cc2ccccc2)c(N)c1=O`, the Free in data set [1] is recorded as 22%. In addition, in [5], the concentration peaked (Cmax) at 450 nM. The area under the curve (AUC) in [6] amounted to 0.62 µM·h. The half-life in data set [7] amounted to 1.05 h. In addition, the Concentration in the data set listed under Homo sapiens was found to be 0.47 µM. This molecule also showed a Ki on Serine protease 1 of 1600 nM.

Take `Cc1nc(N)ccc1CNC(=O)Cn1c(C)cc(S(=O)(=O)c2cccs2)c(N)c1=O`: the Free in data set [1] is reported as 40%. Further, the Concentration in the data set listed under Homo sapiens came to 0.39 µM. Besides, the Ki was 1.7 nM at Prothrombin and 340 nM at Serine protease 1. Further, the concentration in the data set listed under Rattus norvegicus was 430 nM.

The molecule `Cc1nc(N)ccc1CNC(=O)Cn1c(C)cc2c(c1=O)NCN(C1CC1)S2(=O)=O` showed a Concentration in the data set listed under Homo sapiens of 0.75 µM. Moreover, the Ki on Serine protease 1 amounted to 10000 nM.

In turn, `Cc1nc(N)ccc1CNC(=O)Cn1c(C)cc(S(=O)(=O)NC2CCC2)c(N)c1=O` had a Free in data set [1] of 45%. The Concentration in the data set filed under Homo sapiens came out at 0.35 µM. On Serine protease 1, this molecule yielded a Ki of 1100 nM.

Take `Cc1ccc(S(=O)(=O)c2cc(C)n(CC(=O)NCc3ccc(N)nc3C)c(=O)c2N)cc1`: the results for the Ki at Prothrombin and on Serine protease 1 were 94 nM and 800 nM, respectively.

`Cc1nc(N)ccc1CNC(=O)Cn1c(C)cc2c(c1=O)NCN(C1CCC1)S2(=O)=O` gave a Concentration in the data set listed under Homo sapiens of 1.11 µM. At Serine protease 1, this molecule had a Ki of 6300 nM.

In data set [1], `Cc1nc(N)ccc1CNC(=O)Cn1c(C)cc(S(=O)(=O)NCC2CCC2)c(N)c1=O` registered a Free of 23%. The molecule also gave a Concentration in the data set listed under Homo sapiens of 0.47 µM. In addition, the figures for the Ki on Prothrombin and at Serine protease 1 were 0.75 nM and 740 nM, respectively. In the data set listed under Rattus norvegicus, this molecule had a concentration of 640 nM.
